This passage reports IC50 results from ChEMBL document CHEMBL1201862, “PubChem BioAssay data set” (2004).

The IC50 is the concentration at which inhibition is half-maximal.

The assay concerns the target Envelope glycoprotein gp160 (Human immunodeficiency virus 1, UniProt Q6QLK5). The assay can be described thus: inhibitors of HIV fusion peptide binding, primary screen, biochemical, uHTS, fluorescence dequenching (AID 1986).

Calls of active or inactive are those of the source. Rule as the data show it: actives have a measured IC50 and inactives only a lower limit.

Envelope glycoprotein gp160, sequence (Q6QLK5 whole entry, the tested form may be a part): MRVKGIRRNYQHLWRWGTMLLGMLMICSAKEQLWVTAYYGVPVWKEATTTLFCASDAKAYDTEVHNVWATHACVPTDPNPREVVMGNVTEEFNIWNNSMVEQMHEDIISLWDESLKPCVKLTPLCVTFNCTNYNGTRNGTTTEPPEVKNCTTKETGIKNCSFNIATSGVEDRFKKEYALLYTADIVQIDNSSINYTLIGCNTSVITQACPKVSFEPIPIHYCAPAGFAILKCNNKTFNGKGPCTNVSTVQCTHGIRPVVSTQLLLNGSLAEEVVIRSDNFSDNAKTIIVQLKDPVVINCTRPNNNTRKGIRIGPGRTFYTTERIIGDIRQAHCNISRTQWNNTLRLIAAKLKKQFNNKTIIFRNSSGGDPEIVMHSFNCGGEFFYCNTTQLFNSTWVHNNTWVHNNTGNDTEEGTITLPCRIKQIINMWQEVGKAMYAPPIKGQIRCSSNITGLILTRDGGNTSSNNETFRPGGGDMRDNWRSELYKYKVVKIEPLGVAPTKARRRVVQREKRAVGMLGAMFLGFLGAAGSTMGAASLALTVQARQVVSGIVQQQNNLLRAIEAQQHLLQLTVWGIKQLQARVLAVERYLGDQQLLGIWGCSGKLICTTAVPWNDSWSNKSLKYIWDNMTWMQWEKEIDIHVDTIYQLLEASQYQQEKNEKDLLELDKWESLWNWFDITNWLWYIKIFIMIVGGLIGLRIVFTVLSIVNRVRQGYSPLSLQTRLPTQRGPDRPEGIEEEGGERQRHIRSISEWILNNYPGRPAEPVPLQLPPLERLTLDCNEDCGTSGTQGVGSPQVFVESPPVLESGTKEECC

`COc1ccc(-c2coc3c(C)c4oc(=O)c(CCC(=O)O)c(C)c4cc23)cc1`: the IC50 is 41.7 µM (active).
